Entries after “also recorded” stand apart in the source; their conditions may differ.
Columns and labels:
[1] = test system: mouse fibroblast cells treated with exogenous Oct4/Sox2/Klf4/Myc polypeptides; assay: Oct4-positive colonies from an intermediate iPSC clone after small molecule treatment (Example 3, FIG. 5); format: cell-based; conditions: combined treatment 0.5 μM PD0325901, 3 μM CHIR99021, 0.5 μM A-83-01, counted 2 weeks after treatment
Method: FIG. 5. […] A comparison of the number of Oct4^+ iPS cell colonies generated from mouse fibroblast cells treated with exogenous Oct4/Sox2/Klf4/Myc polypeptides, and with or without 0.5 μM PD0325901, 3 μM CHIR99021, and 0.5 μM A-83-01. Y-axis represents percentage of Oct4′ colonies within total number of colonies.
We tested the TGFβ receptor inhibitor (A-83-01), MEK inhibitor (PD0325901) and GSK-3 inhibitor (CHIR99021), on mouse fibroblast cells that were treated with exogenous Oct4, Klf4, Sox2 and c-Myc polypeptides, for their effects on reprogramming kinetics and efficiency.
Mouse fibroblasts were grown in mESC growth medium [Knockout DMEM (Invitrogen) supplemented with 10% ES-FBS+10% KSR, 0.1 mM 2-ME, 1% Glutamax, 1% Non-essential amino acids, 1% EmbryoMax ESC Qualified Nucleosides (Millipore), and 10^3 units/ml LIF (ESGRO, Chemicon International)] supplemented with 8 μg/ml of Oct4/Sox2/Klf4/Myc (all four transcription factors are tagged with poly-Arg […]; SEQ ID NO:2) for 4-12 hours, followed by culturing the cells in the absence of the Oct4/Sox2/Klf4/Myc polypeptides for one day. This procedure was repeated 4 times. The cells were then cultured in mESC medium for another two weeks. iPSC clones were detected by colony morphology and expression of pluripotency markers. An intermediate iPSC clone, which expresses ALP but not Oct4 (Oct4), was dissociated with Trypsin-EDTA. The clone was then expanded by continuous culturing with regular mESC medium or medium supplemented with 0.5 μM PD0325901, 3 μM CHIR99021, 0.5 μM A-83-01. The number of Oct4-positive colonies were counted 2 weeks after small molecule treatment (FIG. 5).

cellular reprogramming = assay: Enhancement of cellular reprogramming by nuclear receptor ligands; format: cell-based
Mouse fibroblasts = assay: Induction of pluripotency in mouse fibroblasts by intermittent incubation with poly-Arg transcription factor proteins (Example 1); format: cell-based; conditions: added and/or combined during protein treatment of mouse fibroblasts
Method: Mouse fibroblasts were grown in mESC medium supplemented with 8 μg/ml of either Oct4/Sox2/Klf4 or Oct4/Sox2/Klf4/Myc (all proteins comprising poly-Arg as described above) for 6-8 hours, washed, and incubated for 2-3 days in mESC media without the above-listed transcription factors. This (4-12 hours with, 1-3 days without) was repeated a number (1, 2, 3, 4, or more) of times and then the cells were cultures in mESC for two weeks.

reprogramming efficiency = conditions: HDAC inhibitor; Huangfu et al. 2008a; cited from earlier work

| SMILES | effect on reprogramming efficiency and kinetics / iPSC generation (Oct4-positive colonies) [1] | effect on efficiency and speed of development of pluripotent cells (Mouse fibroblasts) | also measured |
| --- | --- | --- | --- |
| Cc1cccc(-c2nn(C(=S)Nc3ccccc3)cc2-c2ccnc3ccccc23)n1 [A-83-01, 3-(6-Methyl-2-pyridinyl)-N-phenyl-4-(4-quinolinyl)-1H-pyrazole-1-carbothioamide] | increases reprogramming efficiency and accelerates reprogramming kinetics; also recorded: enhanced iPSC generation |  |  |
| C=C(c1ccc(C(=O)O)cc1)c1cc2c(cc1C)C(C)(C)CCC2(C)C [Bexarotene] |  |  | effect on cellular reprogramming (cellular reprogramming; 3 μM): can enhance cellular reprogramming |
| Cc1c[nH]c(-c2cnc(NCCNc3ccc(C#N)cn3)nc2-c2ccc(Cl)cc2Cl)n1 [CHIR99021] | increases reprogramming efficiency and accelerates reprogramming kinetics; also recorded: enhanced iPSC generation | improved efficiency and speed of development of pluripotent cells |  |
| CC(C)C[C@H](NC(=O)OCC1c2ccccc2-c2ccccc21)C(=O)O [Fmoc-Leu] |  |  | effect on cellular reprogramming (cellular reprogramming; 5 μM): can enhance cellular reprogramming |
| O=C(NOC[C@H](O)CO)c1ccc(F)c(F)c1Nc1ccc(I)cc1F [PD0325901] | increases reprogramming efficiency and accelerates reprogramming kinetics | improved efficiency and speed of development of pluripotent cells | effect on reprogramming efficiency and kinetics / iPSC generation (Oct4-positive colonies) ([1]; listed as PD0320501): enhanced iPSC generation |
| NC(=O)c1ccc(-c2nc(-c3ccc4c(c3)OCO4)c(-c3ccccn3)[nH]2)cc1 [SB431542] |  | improved efficiency and speed of development of pluripotent cells |  |
| CCCC(CCC)C(=O)O [valproic acid] |  |  | effect on reprogramming efficiency (reprogramming efficiency): can significantly improve the reprogramming efficiency |

From patent US9068170B2, “Generation of pluripotent stem cells using recombinant proteins” (THE SCRIPPS RESEARCH INSTITUTE, priority 2008, dated 2015)
